Reference: patent US4342753A, “Carboxyalkyl derivatives of rutin poly(H-)sulfate” (American Cyanamid Company, priority 1981, dated 1982)
Structures can show the parent of a compound that is named as a salt. Where two headings read alike, the source gives them in different places.

Tests used:
[1] = biological target: T1, activated human C1 (Homo sapiens, UniProt P09871); assay: Test Code 026 (C1 inhibitor); type: biochemical; conditions: serial dilutions are twofold; higher well number indicates higher activity
T1 sequence (P09871 16-437 limits assumed): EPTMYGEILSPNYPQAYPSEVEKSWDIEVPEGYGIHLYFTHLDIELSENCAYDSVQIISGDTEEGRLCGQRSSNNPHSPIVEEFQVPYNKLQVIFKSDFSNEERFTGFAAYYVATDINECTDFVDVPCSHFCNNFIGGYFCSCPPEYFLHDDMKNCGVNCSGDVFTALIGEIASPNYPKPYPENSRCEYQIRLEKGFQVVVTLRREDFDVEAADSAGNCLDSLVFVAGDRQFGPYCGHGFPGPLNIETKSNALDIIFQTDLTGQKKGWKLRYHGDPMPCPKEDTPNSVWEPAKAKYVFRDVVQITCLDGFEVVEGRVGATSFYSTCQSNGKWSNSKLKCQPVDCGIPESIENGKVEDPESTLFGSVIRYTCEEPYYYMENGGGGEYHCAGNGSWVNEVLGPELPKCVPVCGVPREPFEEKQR
T1 sequence (P09871 438-688 limits assumed): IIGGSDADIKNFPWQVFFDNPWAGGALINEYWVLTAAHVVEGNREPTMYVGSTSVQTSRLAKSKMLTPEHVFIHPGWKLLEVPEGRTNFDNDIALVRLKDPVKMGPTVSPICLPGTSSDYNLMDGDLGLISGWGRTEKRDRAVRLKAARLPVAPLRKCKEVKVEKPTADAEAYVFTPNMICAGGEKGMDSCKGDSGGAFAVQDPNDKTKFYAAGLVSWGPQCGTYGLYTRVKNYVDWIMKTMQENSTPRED
Method: (§1) An active inhibitor protects C2 from C1 and C4; (ii) Cap 50 Test--Here, appropriate amounts of the test compound are added to a pool of guinea pig serum in vitro, after which the undiluted serum capillary tube assay referred to above is run. The concentration of compound inhibiting 50% is reported; and (iii) Guinea Pig Intraperitoneal Test (GPIP)--Guinea pigs weighing about 300 g. are dosed intraperitoneally (i.p.) with 200 mg./kg. of the test compound dissolved in saline and adjusted to pH 7-8. Approximately 0.4 ml. blood samples, taken by orbital sinus puncture 30 minutes and one hour after injections, are collected directly into centrifuge tubes; 5 ml. blood samples, taken by decapitation 2 hours after injection are collected directly into beakers. The samples are allowed to clot, centrifuged, and the resultant sera are assayed for complement activity using the capillary complement assay. Percent inhibition are calculated by comparison with simultaneous controls.

[2] = test system: complement activity of sera; assay: Guinea Pig Intraperitoneal Test (GPIP); conditions: Cavia porcellus, ip, 200 mg./kg. i.p., read-out: In vivo Activity (Guinea Pig) Intraperitoneal % Inhibition
Method: as §1, with “[…],” for “taken by orbital sinus puncture 30 minutes and one hour after injections,”, “taken by decapitation 2 hours after injection are collected directly into” left out

[3] = test system: human serum complement; conditions: in vitro and in vivo; cited from earlier work

Row | Compound | In vitro Activity 026 (activity in wells, serial dilution assay) [1] | inhibition at 200 mg/kg ([2]; Time 2 hours) | inhibition at 200 mg/kg ([2]; Time 6 hours) | inhibition at 200 mg/kg ([2]; Time 24 hours) | anticomplementary activity [3]
1 | C[C@@H]1O[C@@H](OC[C@H]2O[C@@H](Oc3c(-c4ccc(OCC(=O)O)c(OS(=O)(=O)O)c4)oc4cc(OCC(=O)O)cc(OS(=O)(=O)O)c4c3=O)[C@H](OS(=O)(=O)O)[C@@H](OS(=O)(=O)O)[C@@H]2OS(=O)(=O)O)[C@H](OS(=O)(=O)O)[C@H](OS(=O)(=O)O)[C@H]1OS(=O)(=O)O [4',7-Bis(carboxymethyl)rutin, octa(H-sulfate), decasodium salt] | 11 wells |  |  |  | 
2 | C[C@@H]1O[C@@H](OC[C@H]2O[C@@H](Oc3c(-c4ccc(OCC(=O)O)c(OS(=O)(=O)O)c4)oc4cc(OS(=O)(=O)O)cc(OS(=O)(=O)O)c4c3=O)[C@H](OS(=O)(=O)O)[C@@H](OS(=O)(=O)O)[C@@H]2OS(=O)(=O)O)[C@H](OS(=O)(=O)O)[C@H](OS(=O)(=O)O)[C@H]1OS(=O)(=O)O [4'-Carboxymethyl-rutin, nona(H-sulfate)decasodium salt] | 10 wells | 82% | 69% | 18% | 
3 | pentosanpolysulfoester |  |  |  |  | has an anticomplementary activity on human serum, both in vitro and in vivo
